Experimental data taken from patent US10004718B2, “Erythropoietin expression promoter” (TOHOKU UNIVERSITY, priority 2012, dated 2018).

Assays:
[1] = system: HIF-α; assay: HIF-α concentration in Hep3B cells (Total HIF-1α Cell-Based ELISA); set-up: species or system human; settings: compound 10 μM, 20% O2, 24 hours
Protocol: The Hep3B cells were seeded at 1×10^4 cells/well to a 24-well cell culture plate and then cultured under normal oxygen (20% O2) for 24 hours. Each of 3 types of compounds (compounds #4, 21, and 35) was mixed at a concentration of 10 μM into RPMI1640 common medium 1. After further culture under normal oxygen (20% O2) for 24 hours, the concentration of HIF-α produced in the medium was measured using Total HIF-1 α Cell-Based ELISA Kit (manufactured by R&D Systems, Inc.). Hep3B cells cultured in the absence of the compound (DMSO added [1%]) (“Control” of FIG. 5) were used as a negative control. Hep3B cells cultured in the presence of HIF activators (FG-4592 [10 μM], DMOG [10 μM], and ciclopirox[10 μM]) (“FG”, “DMOG”, and “Ciclo”, respectively, of FIG. 5) were used as positive controls.

[2] = system: Leigh cells; assay: Cell death caused by oxidative stress (BSO) in Leigh syndrome patient fibroblasts; format: cell-based, human; settings: compound 10 μM, 4 days after BSO treatment
Protocol: In Examples 2 to 7 and Reference Example 1 below, an erythropoietin-producing human hepatocellular carcinoma cell Hep3B (obtained from ATCC [American Type Culture Collection]) was cultured and maintained under conditions of 5% CO2/20% O2 and 37° C. in an RPMI1640 (manufactured by Life Technologies, Inc./GIBCO) medium containing 100 U/mL penicillin (manufactured by Life Technologies, Inc./GIBCO), 100 μg/mL streptomycin (manufactured by Life Technologies, Inc./GIBCO), and 10% fetal bovine serum (FBS) (manufactured by Life Technologies, Inc./GIBCO) (hereinafter, referred to as “RPMI1640 common medium 1”). In Example 15 below, Leigh syndrome patients were subjected to skin biopsy to obtain skin fibroblast cells, which were then primarily cultured under conditions of 5% CO2/20% O2 and 37° C. in a DMEM low glucose (manufactured by Life Technologies, Inc./GIBCO) medium containing 100 U/mL penicillin (manufactured by Life Technologies, Inc./GIBCO), 100 μg/mL streptomycin (manufactured by Life Technologies, Inc./GIBCO), and 1% FBS (manufactured by Life Technologies, Inc./GIBCO) (hereinafter, referred to as “DMEM low glucose common medium”) to isolate cells (Leigh cells). In Example 13 below, a human kidney-derived cell line HK-2 (obtained from ATCC) was cultured and maintained under conditions of 5% CO2/20% O2 and 37° C. in a DMEM/F12 (manufactured by Life Technologies, Inc./GIBCO) medium containing 100 U/mL penicillin (manufactured by Life Technologies, Inc./GIBCO), 100 μg/mL streptomycin (manufactured by Life Technologies, Inc./GIBCO), and 10% fetal bovine serum (manufactured by Life Technologies, Inc./GIBCO) (hereinafter, referred to as “DMEM/F12 common medium”). In Example 14 below, a rat islet of Langerhans-derived cell line ISN-1e (kindly provided by Hisamitsu Ishihara, Nihon University School of Medicine) was cultured and maintained under conditions of 5% CO2/20% O2 and 37° C. in an RPMI1640 (manufactured by Life Technologies, Inc./GIBCO) medium containing 10 mM HEPES (manufactured by Sigma-Aldrich Corp.), 2 mM glutamine (manufactured by Sigma-Aldrich Corp.), 50 μM β-mercaptoethanol (manufactured by Sigma-Aldrich Corp.), 100 U/mL penicillin (manufactured by Life Technologies, Inc./GIBCO), 100 μg/mL streptomycin (manufactured by Life Technologies, Inc./GIBCO), and 10% FBS (manufactured by Life Technologies, Inc./GIBCO) (hereinafter, referred to as “RPMI1640 common medium 2”).
The Leigh cells were seeded at 4×10^4 cells/well to a 24-well cell culture plate and then cultured for 24 hours. The glutathione synthesis inhibitor BSO (L-buthionine sulphoximine) (manufactured by Sigma-Aldrich Corp.) was mixed at […] into a medium. After culture for 24 hours in the presence of BSO, each of 5 types of compounds (compounds #2, 4, 5, 21, and 35) was mixed at 10 μM into the medium. After culture for 4 days in the presence of these 5 types of compounds, the number of live cells was measured using Cell Counting Kit-8 (manufactured by Dojindo Laboratories) to calculate the survival rate of the cells (“BSO+#2”, “BSO+#4”, “BSO+#5”, “BSO+#21”, and “BSO+#35” of FIG. 17). […]

[3] = system: mRNA expression of the erythropoietin gene; assay: Quantitative PCR of erythropoietin mRNA in Hep3B cells; format: cell-based, human; settings: compound 10 μM, 20% O2, GAPDH internal standard
Protocol: Of the 5 types of compounds confirmed in Example 4 to be effective for promoting the transcriptional activity of the erythropoietin gene promoter, 4 types of compounds (compounds #2, 4, 5, and 21) were selected. From Hep3B cells cultured in RPMI1640 common medium 1 supplemented with each of these 4 types of compounds at a concentration of 10 μM, total RNA was extracted using TriPure Isolation Reagent (manufactured by F. Hoffmann La Roche AG) in a 6-well cell culture plate. Hep3B cells cultured in the absence of the compound (DMSO added) (“20% O2/DMSO” of FIG. 4) were used as a negative control. Hep3B cells cultured in the presence of a GATA-specific inhibitor (K7174 [10 μM]) (“20% O2/K7174” of FIG. 4) and Hep3B cells cultured under hypoxia (1% O2) conditions and in the absence of the compound (DMSO added [1%]) (“1% O2/DMSO” of FIG. 4) were used as positive controls.
The extracted RNA was used as a template to synthesize cDNA using SuperScript III RTS First-strand kit (manufactured by Invitrogen Corp.). Then, the expression of the erythropoietin mRNA was measured by quantitative PCR with GAPDH as an internal standard. The quantitative PCR was carried out using TaqMan® Gene Expression Assays (using GAPDH; Assay ID: Rn99999916_s1, and human erythropoietin; Assay ID: Hs00171267_ml TaqMan® probes [manufactured by Applied Biosystems Inc.]) and Step One Plus Real-Time PCR System (manufactured by Applied Biosystems Inc.).

SMILES | HIF-α concentration in the Hep3B cells [1] | cell death of the Leigh cells by BSO [2] | mRNA expression level of the erythropoietin gene [3]
O=C(CC(C(=O)O)c1c[nH]c2ccccc12)c1ccc(F)cc1 (centres unmarked) [compound #4, 4-(4-Fluorophenyl)-2-(1H-indol-3-yl)-4-oxo-butanoic acid] | increase the HIF-α concentration | efficiently suppress the cell death | increase the mRNA expression level
O=C(CC(C(=O)O)c1c[nH]c2ccccc12)c1ccc(F)cc1F (centres unmarked) [compound #5, 4-(2,4-Difluorophenyl)-2-(1H-indol-3-yl)-4-oxo-butanoic acid] |  | efficiently suppress the cell death | increase the mRNA expression level
O=C(O)C(CCCC(F)(F)C(F)(F)F)c1c[nH]c2ccccc12 (stereo not drawn) [compound #21, α-(4,4,5,5,5-Pentafluoro-1-pentyl)-3-indoleacetic acid] | increase the HIF-α concentration | efficiently suppress the cell death | increase the mRNA expression level
